Experimental data from ChEMBL document CHEMBL5346899, “PKM2/PDK1 dual-targeted shikonin derivatives restore the sensitivity of EGFR-mutated NSCLC cells to gefitinib by remodeling glucose metabolism” (Eur J Med Chem, 2023).
Active and inactive are the calls of the source. The calls are words filed in the database; no cut-off is given here.

Key:
A549 [1] = test: cells; type: functional, cell-based; settings: Homo sapiens, A549, 24 h
Description: Antiproliferative activity against human A549 cells assessed as inhibition of cell growth incubated for 24 hrs by CCK-8 assay

NCI-H1299 [2] = test: cells; type: functional, cell-based; settings: Homo sapiens, NCI-H1299, 24 h
Description: Antiproliferative activity against human NCI-H1299 cells assessed as inhibition of cell growth incubated for 24 hrs by CCK-8 assay

NCI-H1975 [3] = test: Antiproliferative activity against human NCI-H1975 cells assessed as reduction in clone size; type: functional, cell-based
HCC827 [4] = test: Antiproliferative activity against human HCC827 cells assessed as reduction in clone size; type: functional, cell-based
NCI-H1299 [5] = test: Induction of apoptosis in human NCI-H1299 cells assessed as early apoptotic cells at 1 micromol/L incubated for 24 hrs by Annexin V-FITC/PI staining based analysis (reference value: 2.43%); type: functional; settings: dose 1 µmol/L, at 1 µM
NCI-H1299 [6] = test: Induction of apoptosis in human NCI-H1299 cells assessed as late apoptotic cells at 1 micromol/L incubated for 24 hrs by Annexin V-FITC/PI staining based analysis (reference value: 14.9%); type: functional; settings: dose 1 µmol/L, at 1 µM
A549 [7] = test: Induction of apoptosis in human A549 cells assessed as early apoptotic cells at 1 micromol/L incubated for 24 hrs by Annexin V-FITC/PI staining based analysis (reference value: […]%); type: functional; settings: dose 1 µmol/L
NCI-H1975 [8] = test: Induction of apoptosis in human NCI-H1975 cells assessed as late apoptotic cells at 1 micromol/L incubated for 24 hrs by Annexin V-FITC/PI staining based analysis (reference value: 2.66%); type: functional; settings: dose 1 µmol/L, at 1 µM
HCC827 [9] = test: Induction of apoptosis in human HCC827 cells assessed as early apoptotic cells at 2 micromol/L incubated for 24 hrs by Annexin V-FITC/PI staining based analysis (reference value: 9.14%); type: functional; settings: dose 2 µmol/L, at 2 µM
NCI-H1975 [10] = test: Induction of apoptosis in human NCI-H1975 cells assessed as regulation of cleaved PARP expression by Western blot analysis; type: functional, cell-based
NCI-H1975 [11] = test: Induction of apoptosis in human NCI-H1975 cells assessed as regulation of cleaved Caspase-9 expression by Western blot analysis; type: functional, cell-based
NCI-H1975 [12] = test: Induction of apoptosis in human NCI-H1975 cells assessed as regulation of cytochrome c expression by Western blot analysis; type: functional, cell-based
NCI-H1975 [13] = test: Induction of apoptosis in human NCI-H1975 cells assessed as regulation of caspase-8 expression by Western blot analysis; type: functional, cell-based
NCI-H1975 [14] = test: Induction of mitochondrial transmembrane potential dissipation in human NCI-H1975 cells assessed as cells with high mitochondrial transmembrane potential at 0.5 micromol/L by FL-1/FL-2 channel based fluorescence analysis (reference value: 97.4%); type: functional; settings: dose 0.5 µmol/L; at 0.5 µM
NCI-H1975 [15] = test: Induction of mitochondrial transmembrane potential dissipation in human NCI-H1975 cells assessed as cells with low mitochondrial transmembrane potential at 1 micromol/L by FL-1/FL-2 channel based fluorescence analysis (reference value: 2.13%); type: functional; settings: dose 1 µmol/L; at 1 µM
HCC827 [16] = test: Induction of intracellular ROS accumulation in human HCC827 cells; type: functional, cell-based
Pyruvate kinase PKM [17] = target: T1, Pyruvate kinase PKM (Homo sapiens, UniProt P14618); test: Activation of PKM2 in human HCC827 cells at 1 to 2 micromol/L by Western blot analysis; type: cell-based; settings: filed as activator, dose 1-2 µmol/L
Pyruvate kinase PKM [18] = target: T1, Pyruvate kinase PKM; test: Activation of PKM2 in siRNA mediated PKM2 knockdown human HCC827 cells at 1 to 2 micromol/L by Western blot analysis; type: cell-based; settings: dose 1-2 µmol/L
Pyruvate kinase PKM [19] = target: T1, Pyruvate kinase PKM; test: Inhibition of PKM2 (unknown origin) nuclear translocation
HCC827 [20] = test: Effect on PKM2 protein expression in human HCC827 cells at 1 to 2 micromol/L by Western blot analysis; type: functional, cell-based; settings: dose 1-2 µmol/L
[21] = target: T2, [Pyruvate dehydrogenase (acetyl-transferring)] kinase isozyme 1, mitochondrial (Homo sapiens, UniProt Q15118); test: Binding affinity to PDK1 (unknown origin) assessed as dissociation constant associated for 60 secs and dissociated for 90 secs by bio-layer interferometry analysis
[22] = target: T2, [Pyruvate dehydrogenase (acetyl-transferring)] kinase isozyme 1, mitochondrial; test: Inhibition of PDK1 in human NCI-H1975 cells at 1 to 2 micromol/L by Western blot analysis; type: cell-based; settings: dose 1-2 µmol/L
[23] = target: T2, [Pyruvate dehydrogenase (acetyl-transferring)] kinase isozyme 1, mitochondrial; test: Inhibition of PDK1 in human HCC827 cells at 1 to 2 micromol/L by Western blot analysis; type: cell-based; settings: dose 1-2 µmol/L
NCI-H1975 [24] = test: Upregulation of PDH protein expression in human NCI-H1975 cells at 1 to 2 micromol/L by Western blot analysis; type: functional, cell-based; settings: dose 1-2 µmol/L
NCI-H1975 [25] = test: Induction of apoptosis in human NCI-H1975 cells transfected with siRNA assessed as late apoptotic cells at 2 micromol/L incubated for 24 hrs by Annexin V-FITC/PI staining based analysis (reference value: 4.03%); type: functional; settings: dose 2 µmol/L, at 2 µM
NCI-H1975 [26] = test: Induction of apoptosis in human NCI-H1975 cells transfected with siRNA assessed as late apoptotic cells at 1 micromol/L incubated for 24 hrs by Annexin V-FITC/PI staining based analysis (reference value: 4.03%); type: functional; settings: dose 1 µmol/L, at 1 µM
NCI-H1975 [27] = test: Induction of apoptosis in human NCI-H1975 cells with siRNA mediated […] knockdown assessed as late apoptotic cells at 2 micromol/L incubated for 24 hrs by Annexin V-FITC/PI staining based analysis (reference value: 6.25%); type: functional; settings: dose 2 µmol/L, at 2 µM
NCI-H1975 [28] = test: Antiproliferative activity against human NCI-H1975 cells transfected with siRNA assessed as inhibition of cell growth incubated for 24 hrs by CCK-8 assay; type: functional, cell-based; settings: NCI-H1975, 24 h
HCC827 [29] = test: Antiproliferative activity against human HCC827 cells transfected with siRNA assessed as inhibition of cell growth incubated for 24 hrs by CCK-8 assay; type: functional, cell-based; settings: HCC827, 24 h
NCI-H1975 [30] = test: Induction of oxidative phosphorylation in human NCI-H1975 cells assessed as increase in ATP production by luminescence based assay; type: functional, cell-based
NCI-H1975 [31] = test: Antitumor activity against human NCI-H1975 cells xenografted in athymic nu/nu mouse assessed as induction of apoptosis in tumor at 2.4 to 4.8 mg/kg, ip administered every 2 days for 11 days by TUNEL assay; type: functional, organism-based; settings: dose 2.4-4.8 mg/kg, time 11.0 day
[32] = Acute toxicity in ICR mouse assessed as reduction in animal survival rate at 2.4 to 38.4 mg/kg, ip administered once for 14 days and measured every day; type: organism-based; settings: in vivo, 336 h, dose 2.4-38.4 mg/kg, time 14 day
NCI-H1975 [33] = test: Induction of apoptosis in human NCI-H1975 cells assessed as live cells at 0.5 micromol/L incubated for 24 hrs by Annexin V-FITC/PI staining based analysis (reference value: 88.7%); type: functional; settings: dose 0.5 µmol/L, at 0.5 µM
NCI-H1975 [34] = test: Induction of apoptosis in human NCI-H1975 cells assessed as late apoptotic cells at 0.5 micromol/L incubated for 24 hrs by Annexin V-FITC/PI staining based analysis (reference value: 8.61%); type: functional; settings: dose 0.5 µmol/L, at 0.5 µM
NCI-H1975 [35] = test: Induction of apoptosis in human NCI-H1975 cells assessed as late apoptotic cells at 0.5 micromol/L incubated for 24 hrs in presence of gefitinib by Annexin V-FITC/PI staining based analysis (reference value: 8.61%); type: functional; settings: dose 0.5 µmol/L, at 0.5 µM
NCI-H1975 [36] = test: Induction of apoptosis in human NCI-H1975 cells assessed as dead cells at 0.5 micromol/L incubated for 24 hrs in presence of gefitinib by Annexin V-FITC/PI staining based analysis (reference value: 0.103%); type: functional; settings: dose 0.5 µmol/L, at 0.5 µM

T1 sequence (P14618 2-531 limits assumed): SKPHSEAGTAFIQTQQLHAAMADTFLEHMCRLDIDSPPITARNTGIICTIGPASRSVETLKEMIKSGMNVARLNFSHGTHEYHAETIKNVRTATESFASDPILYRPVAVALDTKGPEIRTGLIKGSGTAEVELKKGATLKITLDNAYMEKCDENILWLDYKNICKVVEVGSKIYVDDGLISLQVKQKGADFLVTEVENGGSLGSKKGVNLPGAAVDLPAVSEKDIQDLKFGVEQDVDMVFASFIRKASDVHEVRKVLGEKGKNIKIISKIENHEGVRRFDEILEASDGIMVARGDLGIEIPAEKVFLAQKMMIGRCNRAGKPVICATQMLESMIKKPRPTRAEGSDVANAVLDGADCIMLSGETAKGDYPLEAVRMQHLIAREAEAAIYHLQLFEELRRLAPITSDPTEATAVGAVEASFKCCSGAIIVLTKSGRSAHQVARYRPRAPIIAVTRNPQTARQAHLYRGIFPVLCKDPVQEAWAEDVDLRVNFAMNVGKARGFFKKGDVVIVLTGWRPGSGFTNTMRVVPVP
T2 sequence (Q15118 whole entry): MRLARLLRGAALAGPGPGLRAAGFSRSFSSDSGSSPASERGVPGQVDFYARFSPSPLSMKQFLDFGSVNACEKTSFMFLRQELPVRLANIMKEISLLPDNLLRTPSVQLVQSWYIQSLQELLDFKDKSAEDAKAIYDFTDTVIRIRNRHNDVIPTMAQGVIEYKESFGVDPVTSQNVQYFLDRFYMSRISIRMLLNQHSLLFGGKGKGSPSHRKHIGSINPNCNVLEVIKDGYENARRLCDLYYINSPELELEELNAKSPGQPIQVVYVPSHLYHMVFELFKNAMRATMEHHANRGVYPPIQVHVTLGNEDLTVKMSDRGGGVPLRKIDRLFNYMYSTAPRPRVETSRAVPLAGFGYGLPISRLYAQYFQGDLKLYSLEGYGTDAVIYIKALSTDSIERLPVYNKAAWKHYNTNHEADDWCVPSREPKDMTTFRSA

Q: With `COC(=O)[C@H](CS[C@H](CC=C(C)C)C1=CC(=O)c2c(O)ccc(O)c2C1=O)NC(=O)CCCC[C@@H]1CCSC(c2ccccc2C)S1` (stereo partly specified) as the compound, how does the IC50 (A549 [1]) read?
A: Its IC50 is 6.26 µM.

Q: What about the IC50 (NCI-H1299 [2]) of the same compound?
A: The IC50 was 5.48 µM.

Q: And the Activity (NCI-H1975 [3])?
A: Its Activity is “Dose-Dependent Effect”.

Q: And the Activity (HCC827 [4])?
A: Its Activity is “Dose-Dependent Effect”.

Q: What about the Activity (NCI-H1299 [5]) of the same compound?
A: The Activity was 4.68%.

Q: What about the Activity (NCI-H1299 [6]) of the same compound?
A: The Activity was 16.7%.

Q: What about the Activity (A549 [7]) of the same compound?
A: Its Activity is 8.74%.

Q: What about the Activity (NCI-H1975 [8]) of the same compound?
A: The Activity was 23.6%.

Q: What about the Activity (HCC827 [9]) of the same compound?
A: The Activity was 29.4%.

Q: What about the Activity (NCI-H1975 [10]) of the same compound?
A: Its Activity is “Active”.

Q: What about the Activity (NCI-H1975 [11]) of the same compound?
A: Its Activity is “Active”.

Q: And the Activity (NCI-H1975 [12])?
A: Its Activity is “Active”.

Q: And the Activity (NCI-H1975 [13])?
A: Its Activity is “Active”.

Q: What about the Activity (NCI-H1975 [14]) of the same compound?
A: The Activity was 88.1%.

Q: And the Activity (NCI-H1975 [15])?
A: Its Activity is 11.8%.

Q: And the Activity (HCC827 [16])?
A: Its Activity is “Active”.

Q: What about the Activity (Pyruvate kinase PKM [17]) of the same compound?
A: The Activity was “Active”.

Q: And the Activity (Pyruvate kinase PKM [18])?
A: The Activity was “inactive”.

Q: And the inhibition (Pyruvate kinase PKM [19])?
A: Its inhibition is “Active”.

Q: And the Activity (HCC827 [20])?
A: The Activity was “inactive”.

Q: And the Kd [21]?
A: Its Kd is 12.1 µM.

Q: What about the inhibition [22] of the same compound?
A: The inhibition was “Active”.

Q: And the inhibition [23]?
A: The inhibition was “Active”.

Q: And the Activity (NCI-H1975 [24])?
A: Its Activity is “Active”.

Q: And the Activity (NCI-H1975 [25])?
A: Its Activity is 9.4%.

Q: What about the Activity (NCI-H1975 [26]) of the same compound?
A: The Activity was 7.86%.

Q: And the Activity (NCI-H1975 [27])?
A: Its Activity is 8.16%.

Q: What about the IC50 (NCI-H1975 [28]) of the same compound?
A: The IC50 was 3.5 µM.

Q: What about the IC50 (HCC827 [29]) of the same compound?
A: The IC50 was 6 µM.

Q: And the Activity (NCI-H1975 [30])?
A: Its Activity is “Active”.

Q: What about the Activity (NCI-H1975 [31]) of the same compound?
A: Its Activity is “Active”.

Q: What about the Activity [32] of the same compound?
A: The Activity was “Non-Toxic”.

Q: And the Activity (NCI-H1975 [33])?
A: The Activity was 87.3%.

Q: What about the Activity (NCI-H1975 [34]) of the same compound?
A: Its Activity is 11.2%.

Q: What about the Activity (NCI-H1975 [35]) of the same compound?
A: Its Activity is 25%.

Q: And the Activity (NCI-H1975 [36])?
A: Its Activity is 0.011%.
